In ChEMBL document CHEMBL3046010, “Synthesis and pharmacological evaluation of 4-[2-hydroxy-3-(4-phenyl-piperazin-1-yl)-propoxy]-4-azatricyclo[5.2.1.02,6]dec-8-ene-3,5-dione” (Med Chem Res, 2008):

Legend:
Type in all cases: tissue-based
[1] = target: 5-hydroxytryptamine receptor 2A (Rattus norvegicus, UniProt P14842); assay: Displacement of [3H]Ketanserin from 5HT2A receptor in Rattus norvegicus (rat) cerebral cortex by filter binding assay
[2] = target: T1, 5-hydroxytryptamine receptor 1A (Rattus norvegicus, UniProt P19327); assay: Displacement of [3H]8-OH-DPAT from 5HT1A receptor in Rattus norvegicus (rat) cerebral cortex after 15 min by filter binding assay
T1 sequence (P19327 whole entry): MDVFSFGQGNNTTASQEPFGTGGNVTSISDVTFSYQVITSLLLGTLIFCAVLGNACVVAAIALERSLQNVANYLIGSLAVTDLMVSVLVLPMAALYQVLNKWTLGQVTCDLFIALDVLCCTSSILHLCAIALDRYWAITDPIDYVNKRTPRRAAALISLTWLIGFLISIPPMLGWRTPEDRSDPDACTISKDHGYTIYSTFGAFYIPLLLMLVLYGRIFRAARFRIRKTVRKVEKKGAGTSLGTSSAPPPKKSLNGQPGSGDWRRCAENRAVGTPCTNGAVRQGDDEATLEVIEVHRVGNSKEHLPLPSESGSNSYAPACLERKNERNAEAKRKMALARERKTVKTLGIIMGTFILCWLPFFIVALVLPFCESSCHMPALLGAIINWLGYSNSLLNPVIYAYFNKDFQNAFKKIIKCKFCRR

[3] = target: Beta-1 adrenergic receptor (Rattus norvegicus, UniProt P18090); assay: Displacement of [3H]CGP12177 from beta1 adrenoreceptor in Rattus norvegicus (rat) cerebral cortex by liquid scintillation counting
Chain of Beta-1 adrenergic receptor (P18090 whole entry): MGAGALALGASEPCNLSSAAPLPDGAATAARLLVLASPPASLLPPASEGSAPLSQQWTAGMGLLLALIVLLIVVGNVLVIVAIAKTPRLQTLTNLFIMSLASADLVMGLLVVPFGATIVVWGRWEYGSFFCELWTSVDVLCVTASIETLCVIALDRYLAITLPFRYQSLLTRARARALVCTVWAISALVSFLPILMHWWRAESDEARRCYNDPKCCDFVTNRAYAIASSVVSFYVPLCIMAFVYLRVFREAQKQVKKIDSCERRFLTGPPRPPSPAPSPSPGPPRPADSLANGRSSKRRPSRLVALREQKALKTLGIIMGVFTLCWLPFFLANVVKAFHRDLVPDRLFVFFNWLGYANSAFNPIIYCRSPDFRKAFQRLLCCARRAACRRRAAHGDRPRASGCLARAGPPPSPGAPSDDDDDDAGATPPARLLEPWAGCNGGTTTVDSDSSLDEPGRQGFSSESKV

Chain of 5-hydroxytryptamine receptor 2A (P14842 whole entry): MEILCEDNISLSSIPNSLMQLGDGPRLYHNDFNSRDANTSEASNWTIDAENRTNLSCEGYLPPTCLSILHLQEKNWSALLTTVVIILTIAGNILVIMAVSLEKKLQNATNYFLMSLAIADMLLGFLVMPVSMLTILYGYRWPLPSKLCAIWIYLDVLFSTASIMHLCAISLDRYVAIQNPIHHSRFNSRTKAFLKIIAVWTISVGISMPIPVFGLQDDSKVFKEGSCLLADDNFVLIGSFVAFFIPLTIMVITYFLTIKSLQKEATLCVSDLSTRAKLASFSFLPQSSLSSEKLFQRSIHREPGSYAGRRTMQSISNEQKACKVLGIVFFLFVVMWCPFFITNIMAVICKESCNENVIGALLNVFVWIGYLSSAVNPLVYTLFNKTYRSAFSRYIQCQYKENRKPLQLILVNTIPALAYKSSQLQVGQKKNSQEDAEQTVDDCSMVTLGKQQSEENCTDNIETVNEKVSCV

SMILES: O=C1C2C3C=CC(C3)C2C(=O)N1OCC(O)CN1CCN(c2ccccc2)CC1 (stereo not drawn)
- Ki [1]: 336 nM
- Ki [2]: 370 nM
- Ki [3]: 38500 nM
